From PubChem BioAssay (NCI)
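Cultured in 96-well plates, cells were exposed to test compound for 48 hours across five concentrations. TGI marks complete inhibition of growth.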

Tests used:
Assay in all cases: NCI tumour cell line growth inhibition, 48 h
[1] = tested on: HCT-116 colon
[2] = tested on: HS 578T breast
[3] = tested on: IGROV1 ovarian
[4] = tested on: OVCAR-5 ovarian
[5] = tested on: DLD-1 colon
[6] = tested on: DMS 114 small cell lung
[7] = tested on: DMS 273 small cell lung
[8] = tested on: HOP-18 NSCLC
[9] = tested on: KM20L2 colon
[10] = tested on: LXFL 529 NSCLC
[11] = tested on: M19-MEL melanoma
[12] = tested on: SNB-78 CNS
[13] = tested on: XF 498 CNS

Row | SMILES | TGI [1] [µM] | TGI [2] [µM] | TGI [3] [µM] | TGI [4] [µM] | other results
1 | Cc1cc(C)nc(NC(=S)Nc2ccccc2Cl)c1 | > 100 | > 100 | > 100 | > 100 | 
2 | Cc1nn(C(=O)c2ccncc2)c2c1C(c1ccc(Cl)cc1)SC(N)=N2 (stereo unspecified) | > 10 | > 10 | > 10 | > 10 | 
3 | c1cc(CSP234N5CCN2CCN3CCN4CC5)ccc1CSP123N4CCN1CCN2CCN3CC4 | > 100 | > 100 | > 100 | > 100 | 
4 | CCCCn1cnnc1NS(=O)(=O)c1cc(C)c(Cl)cc1SCC(=O)O | > 10 | > 10 | > 10 | > 10 | 
5 | CCN1CN(c2ccccc2)C2(CCN(CCCSc3ccc(F)cc3)CC2)C1=O | 14.9 |  | 19.7 | 20.5 | 
6 | O=C(Cn1cc(F)c(=O)[nH]c1=O)C12CC3CC(CC(C3)C1)C2 | > 100 | > 100 | > 100 | > 100 | 
7 | CCO[C@@H]1CCC(S(=O)c2ccc(C)cc2)=CO1 (stereo partly specified) | > 100 | > 100 | > 100 | > 100 | 
8 | CC(C)(C)[Si](C)(C)OCC1OC(n2ccc(=O)[nH]c2=O)C(O[Si](C)(C)C(C)(C)C)[C@@]12O[C@H]2C(N)=O (stereo partly specified) | 22.1 |  | 8.66 | 40.6 | 
9 | O=c1[nH]c(=O)n(COCCO)c2ccc(Br)cc12 | > 100 |  | > 100 | > 100 | 
10 | NC1=NNC2(C(=O)N1)c1ccccc1-c1ccccc12 | > 10 |  | > 10 | > 10 | 
11 | Cc1nc(-n2[nH]c(C)c(CCO)c2=O)[nH]c(=O)c1CCO | > 100 | > 100 | > 100 |  | 
12 | OCC1OC(Oc2cc(O)cc(/C=C/c3ccc(O)cc3)c2)C(O)C(O)C1O (stereo unspecified) | > 100 | > 100 | > 100 | > 100 | 
13 | CCN(CC)CCC1CCCCN1CC(=O)N1c2ccccc2NC(=O)c2ccccc21 (stereo unspecified) | > 100 | > 100 | > 100 | > 100 | 
14 | O=C1NC(=S)NC(=O)C1C(c1ccc([N+](=O)[O-])cc1)C1C(=O)NC(=S)NC1=O | > 100 | > 100 | > 100 | > 100 | 
15 | COc1ccc(N=Nc2ccc3oc(=O)c(C(=O)Nc4ccccc4)cc3c2)cc1 | > 10 | > 10 | > 10 | > 10 | 
16 | CCn1c2ccccc2c2ccc3c(c21)C(=O)c1ccccc1C3=O | > 100 |  | > 100 |  | TGI [5]: > 100 µM; TGI [6]: > 100 µM; TGI [7]: > 100 µM; TGI [8]: > 100 µM; TGI [9]: > 100 µM; TGI [10]: > 100 µM; TGI [11]: 60.6 µM; TGI [12]: > 100 µM; TGI [13]: > 100 µM

Row | SMILES | TGI [1] [µM] | TGI [2] [µM] | TGI [3] [µM] | TGI [4] [µM] | other results
17 | CC1(C)C2CCC(N)(C2)C1N (stereo unspecified) | > 100 |  | > 100 | > 100 | 
18 | COc1cc2c(cc1OC)CC(=O)c1cc(OC)c(OC)cc1/C=C\2 | > 12.5 | > 12.5 | > 12.5 | > 12.5 | 
19 | COc1cc(/C=C/C(=O)OC2C(O)C3CC(OC(=O)c4cc(OC)c(OC)c(OC)c4)CC2N3C)cc(OC)c1OC (stereo unspecified) | > 50 |  | 39.8 | > 50 | 
20 | C=C1CCC2CC1[C@@H](C(=O)c1c[nH]c3ccccc13)NC2(C)C (stereo partly specified) | > 37.5 | > 37.5 | > 37.5 | > 37.5 | 
21 | CSc1nc(-c2ccc(C)cc2)c(C#N)c(=O)[nH]1 | > 100 | > 100 | > 100 | > 100 | 
22 | O=C(O)CCC(NC(=O)c1ccc(Nc2cnc3ccc(C(F)(F)F)cc3n2)cc1)C(=O)O (stereo unspecified) | > 100 | > 100 | > 100 | > 100 | 
23 | Cc1nc2ccc(F)cc2c2c1CCO2 | > 100 | > 100 | > 100 | > 100 | 
24 | CN=CN(C)c1c2ccccc2nc2ccccc12 | > 100 | > 100 | > 100 | > 100 | 
25 | C(=Nc1ccc(-c2cc(-c3ccccc3)nc3ccc4ccccc4c23)cc1)c1ccccc1 | > 100 | 68.6 | > 100 | > 100 | 
26 | CC(O)(/C=C/c1ccccc1)P(=O)(O)c1ccccc1 (stereo unspecified) | > 100 | > 100 | > 100 | > 100 | 
27 | CCN(CC)c1ccc(C2SCC(=O)N2c2ccc(NC(=O)c3ccc(N4C(=O)CSC4c4ccc(N(CC)CC)cc4)cc3)cc2)cc1 (stereo unspecified) | > 100 | > 100 | > 100 | > 100 | 
28 | Cc1cccc2c(=O)c3c(O)cc(O)cc3[nH]c12 | > 10 | > 10 | > 10 | > 10 | 
29 | N#Cc1c(-c2ccc(Cl)cc2)c(C#N)c(=O)n(NS(=O)(=O)c2ccccc2)c1S | 91.2 |  | 65.5 | > 100 | 
30 | Nc1ccc(C(=O)NN2C(=O)C(Cl)C2c2cc(Br)ccc2O)cc1 (stereo unspecified) | 32.5 |  | 94.3 | > 100 | TGI [5]: > 100 µM; TGI [6]: > 100 µM; TGI [7]: > 100 µM; TGI [9]: > 100 µM; TGI [10]: > 100 µM; TGI [11]: > 100 µM; TGI [12]: > 100 µM; TGI [13]: > 100 µM
31 | CN(C(=O)c1ccc(Cl)cc1)C(=S)N1CCN(c2ccccn2)CC1 | > 100 |  | > 100 | > 100 | TGI [5]: > 100 µM; TGI [6]: > 100 µM; TGI [7]: > 100 µM; TGI [8]: > 100 µM; TGI [9]: > 100 µM; TGI [10]: > 100 µM; TGI [11]: > 100 µM; TGI [12]: > 100 µM
32 | N#CCCSC1SC(=C2SC3=C(SCCS3)S2)SC1SCCC#N (stereo unspecified) | > 100 | > 100 | > 100 | > 100 | 
